Source: ChEMBL document CHEMBL4308846, “How Selective Are Pharmacological Inhibitors of Cell-Cycle-Regulating Cyclin-Dependent Kinases?” (J Med Chem, 2018)
The source made the active and inactive calls. No cut-off for these calls is given here.

Experiments:
HCT-116 [1] = experiment: Induction of cell cycle arrest in human HCT116 cells assessed as accumulation at G2/M phase at 1.7 to 19.8 uM after 24 hrs by propidium iodide-staining based flow cytometry; type: functional
CDK9/cyclin T1 = CDK9/cyclin T1 (Homo sapiens, UniProt P50750); experiment: biochemical
CDK7/Cyclin H/MNAT1 = CDK7/Cyclin H/MNAT1 (Homo sapiens, UniProt P50613); experiment: biochemical
[2] = molecular target: Cyclin-dependent kinase 5/CDK5 activator 1 (Homo sapiens, UniProt Q00535); experiment: biochemical
[3] = molecular target: Cyclin-dependent kinase 2/cyclin E1 (Homo sapiens, UniProt P24941); experiment: biochemical
[4] = molecular target: Cyclin-dependent kinase 1/cyclin B1 (Homo sapiens, UniProt P06493); experiment: biochemical
HCT-116 [5] = experiment: Induction of cell cycle arrest in human HCT116 cells at 19.8 to 100 uM after 24 hrs by propidium iodide-staining based flow cytometry relative to control; type: functional
[6] = molecular target: Cyclin-dependent kinase 4/cyclin D1 (Homo sapiens, UniProt P11802); experiment: biochemical
CDK2/Cyclin A2 = CDK2/Cyclin A2 (Homo sapiens, UniProt P24941)
HCT-116 [7] = experiment: Induction of cell cycle arrest in human HCT116 cells assessed as accumulation at G2/M phase at 19.8 to 100 uM after 24 hrs by propidium iodide-staining based flow cytometry relative to control; type: functional
[8] = molecular target: Cyclin-dependent kinase 9 (Homo sapiens) (UniProt P50750); experiment: Inhibition of CDK9 in human HCT116 cells assessed as induction of dephosphorylation of RNA polymerase 2 S2/S5 residues at 250 to 500 nM after 24 hrs by Western blot analysis; type: cell-based
HCT-116 [9] = experiment: Induction of cell cycle arrest in human HCT116 cells assessed as accumulation at G2/M phase at 5 to 20 uM after 24 hrs by propidium iodide-staining based flow cytometry; type: functional
HCT-116 [10] = experiment: Induction of cell cycle arrest in human HCT116 cells assessed as accumulation at G2/M phase after 24 hrs by propidium iodide-staining based flow cytometry; type: functional
HCT-116 [11] = experiment: Induction of cell cycle arrest in CDK2 knocked out human HCT116 cells assessed as accumulation at G2/M phase at 5 to 20 uM after 24 hrs by propidium iodide-staining based flow cytometry; type: functional
HCT-116 [12] = experiment: Induction of cell cycle arrest in human HCT116 cells assessed as reduction in accumulation at G1 phase at 1.7 to 19.8 uM after 24 hrs by propidium iodide-staining based flow cytometry; type: functional
HCT-116 [13] = experiment: Induction of cell cycle arrest in human HCT116 cells assessed as reduction in accumulation at G1 phase 19.8 to 100 uM after 24 hrs by propidium iodide-staining based flow cytometry; type: functional
HCT-116 [14] = experiment: Induction of cell cycle arrest in human HCT116 cells assessed as accumulation at G2/M phase at 3.9 to 19.8 uM after 24 hrs by propidium iodide-staining based flow cytometry relative to control; type: functional

Sequence of Cyclin-dependent kinase 5/CDK5 activator 1 (Q00535 whole entry): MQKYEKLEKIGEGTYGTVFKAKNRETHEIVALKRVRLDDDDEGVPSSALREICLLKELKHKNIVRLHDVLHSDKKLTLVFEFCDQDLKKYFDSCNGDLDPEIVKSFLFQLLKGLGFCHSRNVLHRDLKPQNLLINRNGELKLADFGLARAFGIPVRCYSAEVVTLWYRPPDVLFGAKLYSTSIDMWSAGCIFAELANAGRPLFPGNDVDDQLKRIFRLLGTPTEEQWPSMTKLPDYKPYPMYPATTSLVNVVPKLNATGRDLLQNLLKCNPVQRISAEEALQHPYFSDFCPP
Sequence of Cyclin-dependent kinase 5/CDK5 activator 1 (Q15078 whole entry, further chain): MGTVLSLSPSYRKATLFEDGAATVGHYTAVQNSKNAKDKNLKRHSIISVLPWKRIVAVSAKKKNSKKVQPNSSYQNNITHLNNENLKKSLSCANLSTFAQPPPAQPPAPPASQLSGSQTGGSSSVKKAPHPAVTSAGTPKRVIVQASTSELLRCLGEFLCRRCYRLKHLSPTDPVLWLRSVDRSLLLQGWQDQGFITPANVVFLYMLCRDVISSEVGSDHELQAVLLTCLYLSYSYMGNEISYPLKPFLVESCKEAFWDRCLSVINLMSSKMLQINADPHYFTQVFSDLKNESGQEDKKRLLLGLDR
Sequence of Cyclin-dependent kinase 4/cyclin D1 (P11802 whole entry): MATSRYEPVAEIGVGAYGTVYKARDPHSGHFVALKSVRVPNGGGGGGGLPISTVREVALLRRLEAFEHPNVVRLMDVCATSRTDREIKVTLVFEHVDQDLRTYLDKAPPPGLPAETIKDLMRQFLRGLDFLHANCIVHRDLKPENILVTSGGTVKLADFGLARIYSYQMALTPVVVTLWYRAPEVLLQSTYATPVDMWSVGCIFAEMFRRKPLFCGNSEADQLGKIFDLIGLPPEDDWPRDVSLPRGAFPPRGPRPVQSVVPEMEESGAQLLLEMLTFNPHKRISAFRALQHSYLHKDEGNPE
Sequence of Cyclin-dependent kinase 4/cyclin D1 (P24385 whole entry, further chain): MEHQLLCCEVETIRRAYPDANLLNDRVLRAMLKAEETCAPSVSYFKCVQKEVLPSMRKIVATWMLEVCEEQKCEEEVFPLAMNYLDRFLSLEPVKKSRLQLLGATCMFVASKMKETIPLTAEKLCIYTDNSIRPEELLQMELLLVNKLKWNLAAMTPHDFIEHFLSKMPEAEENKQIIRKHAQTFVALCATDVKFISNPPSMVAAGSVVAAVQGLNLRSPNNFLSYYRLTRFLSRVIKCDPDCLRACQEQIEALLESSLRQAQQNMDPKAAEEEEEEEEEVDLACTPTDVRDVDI
Sequence of Cyclin-dependent kinase 1/cyclin B1 (P06493 whole entry): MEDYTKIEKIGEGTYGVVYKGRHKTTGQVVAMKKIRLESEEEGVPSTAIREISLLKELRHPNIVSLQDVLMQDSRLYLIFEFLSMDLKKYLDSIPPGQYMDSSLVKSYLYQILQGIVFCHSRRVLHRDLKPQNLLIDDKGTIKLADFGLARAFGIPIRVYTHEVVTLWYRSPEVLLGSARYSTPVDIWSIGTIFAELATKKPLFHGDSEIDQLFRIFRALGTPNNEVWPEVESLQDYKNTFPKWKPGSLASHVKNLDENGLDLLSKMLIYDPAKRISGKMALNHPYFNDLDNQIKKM
Sequence of Cyclin-dependent kinase 1/cyclin B1 (P14635 whole entry, further chain): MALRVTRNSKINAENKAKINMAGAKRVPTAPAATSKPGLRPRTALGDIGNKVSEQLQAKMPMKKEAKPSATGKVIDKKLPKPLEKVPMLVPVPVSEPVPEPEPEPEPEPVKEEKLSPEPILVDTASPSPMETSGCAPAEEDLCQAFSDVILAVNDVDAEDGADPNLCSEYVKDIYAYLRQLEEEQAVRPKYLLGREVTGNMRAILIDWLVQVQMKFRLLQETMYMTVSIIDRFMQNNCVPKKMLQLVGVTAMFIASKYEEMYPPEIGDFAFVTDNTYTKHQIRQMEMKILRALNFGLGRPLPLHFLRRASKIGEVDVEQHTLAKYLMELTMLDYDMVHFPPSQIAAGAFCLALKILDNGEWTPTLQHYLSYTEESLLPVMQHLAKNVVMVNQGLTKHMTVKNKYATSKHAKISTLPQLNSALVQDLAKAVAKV
Sequence of CDK7/Cyclin H/MNAT1 (P51946 whole entry): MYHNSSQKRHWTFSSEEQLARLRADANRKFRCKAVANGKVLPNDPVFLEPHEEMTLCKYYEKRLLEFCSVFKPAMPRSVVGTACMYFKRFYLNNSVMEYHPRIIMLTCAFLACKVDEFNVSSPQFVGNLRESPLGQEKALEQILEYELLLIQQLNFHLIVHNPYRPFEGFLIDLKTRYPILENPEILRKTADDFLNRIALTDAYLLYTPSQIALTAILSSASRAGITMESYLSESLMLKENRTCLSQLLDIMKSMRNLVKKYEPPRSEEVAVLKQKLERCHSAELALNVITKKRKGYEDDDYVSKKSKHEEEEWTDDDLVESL
Sequence of CDK7/Cyclin H/MNAT1 (P50613 whole entry): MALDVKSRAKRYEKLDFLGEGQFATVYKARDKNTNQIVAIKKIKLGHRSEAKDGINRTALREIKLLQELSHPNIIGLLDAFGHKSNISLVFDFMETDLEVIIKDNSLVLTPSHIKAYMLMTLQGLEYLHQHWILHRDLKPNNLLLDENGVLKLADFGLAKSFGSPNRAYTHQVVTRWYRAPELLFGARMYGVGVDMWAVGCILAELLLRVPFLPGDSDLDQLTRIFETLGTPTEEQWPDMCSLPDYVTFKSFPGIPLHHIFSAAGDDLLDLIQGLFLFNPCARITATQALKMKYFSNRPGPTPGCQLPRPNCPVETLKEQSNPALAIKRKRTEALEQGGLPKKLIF
Sequence of CDK7/Cyclin H/MNAT1 (P51948 whole entry, further chain): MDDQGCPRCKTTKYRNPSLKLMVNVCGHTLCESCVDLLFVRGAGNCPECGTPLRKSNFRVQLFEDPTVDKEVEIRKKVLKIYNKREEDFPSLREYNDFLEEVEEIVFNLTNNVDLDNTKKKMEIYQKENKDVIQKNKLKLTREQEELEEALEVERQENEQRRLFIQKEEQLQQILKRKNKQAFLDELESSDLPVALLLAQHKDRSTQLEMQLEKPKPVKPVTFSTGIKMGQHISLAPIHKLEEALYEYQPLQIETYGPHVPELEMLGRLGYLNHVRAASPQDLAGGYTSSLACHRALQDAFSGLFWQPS
Sequence of CDK9/cyclin T1 (O60563 whole entry): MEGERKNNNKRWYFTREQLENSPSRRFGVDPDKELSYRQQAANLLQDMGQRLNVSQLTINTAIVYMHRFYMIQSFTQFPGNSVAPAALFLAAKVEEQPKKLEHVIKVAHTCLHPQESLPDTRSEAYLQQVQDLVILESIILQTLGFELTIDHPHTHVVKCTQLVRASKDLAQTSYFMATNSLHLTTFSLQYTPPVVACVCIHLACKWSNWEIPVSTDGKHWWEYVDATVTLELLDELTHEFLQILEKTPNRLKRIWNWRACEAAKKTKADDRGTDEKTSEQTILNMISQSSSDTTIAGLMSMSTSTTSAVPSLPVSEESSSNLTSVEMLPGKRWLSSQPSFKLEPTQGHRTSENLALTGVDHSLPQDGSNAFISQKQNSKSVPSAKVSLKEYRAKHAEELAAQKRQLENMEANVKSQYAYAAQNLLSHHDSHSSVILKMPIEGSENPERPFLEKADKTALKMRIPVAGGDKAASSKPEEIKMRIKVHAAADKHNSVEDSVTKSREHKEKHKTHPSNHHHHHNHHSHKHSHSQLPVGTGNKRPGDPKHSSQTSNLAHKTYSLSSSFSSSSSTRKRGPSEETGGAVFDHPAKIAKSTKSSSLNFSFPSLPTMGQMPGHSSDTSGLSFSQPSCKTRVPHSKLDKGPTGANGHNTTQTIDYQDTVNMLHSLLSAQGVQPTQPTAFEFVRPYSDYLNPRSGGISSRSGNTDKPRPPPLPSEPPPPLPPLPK
Sequence of CDK9/cyclin T1 (P50750 whole entry): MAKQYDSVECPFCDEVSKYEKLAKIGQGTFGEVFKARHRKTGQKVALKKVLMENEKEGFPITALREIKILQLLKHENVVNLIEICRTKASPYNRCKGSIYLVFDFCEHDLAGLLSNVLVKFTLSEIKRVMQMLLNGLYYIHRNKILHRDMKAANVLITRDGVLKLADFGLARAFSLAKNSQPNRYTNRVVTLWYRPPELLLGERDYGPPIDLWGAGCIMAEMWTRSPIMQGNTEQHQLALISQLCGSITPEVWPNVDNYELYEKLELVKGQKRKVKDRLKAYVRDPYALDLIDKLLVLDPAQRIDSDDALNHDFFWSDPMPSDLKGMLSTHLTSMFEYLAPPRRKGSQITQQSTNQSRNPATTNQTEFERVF
Sequence of Cyclin-dependent kinase 9 (Homo sapiens) (P50750 whole entry): as above

Row | Compound | IC50 (CDK9/cyclin T1) | IC50 (CDK7/Cyclin H/MNAT1) | IC50 [2] | IC50 [3] | IC50 [4] | IC50 [6] | IC50 (CDK2/Cyclin A2) | Activity (HCT-116 [10]) | further results
1 | O=C1Nc2cc(Br)ccc2/C1=C1/Nc2ccccc2/C1=N\O [6BIO] | 0.45 µM | 3.5 µM | – | – | – | – | – | – | Activity (HCT-116 [1]): <=30%
2 | CN(C)C(=O)c1cc2cnc(Nc3ccc(N4CCNCC4)cn3)nc2n1C1CCCC1 [RIBOCICLIB] | – | > 20 µM | > 20 µM | – | – | – | – | – | –
3 | Nc1n[nH]c2nc3ccccc3nc12 [QUINOXALINE1] | 14.1 µM | > 20 µM | 13.7 µM | 5.6 µM | 9.7 µM | > 20 µM | 0.01 µM | – | Activity (HCT-116 [5]): inactive
4 | CCOC(=O)c1cnc2oc3ccc(O)cc3c2c1-c1ccccc1 | > 20 µM | > 20 µM | > 20 µM | 14.3 µM | > 20 µM | > 20 µM | 7.1 µM | – | Activity (HCT-116 [7]): inactive
5 | Nc1cc(Nc2ccc(S(N)(=O)=O)cc2)ncn1 | > 20 µM | > 20 µM | 4.4 µM | 1.9 µM | 5.3 µM | > 20 µM | 0.946 µM | – | Activity [8]: inactive
6 | COc1ccc2c(c1)/C(=C/c1cnc[nH]1)C(=O)N2 [SU-9516] | – | – | – | – | – | – | – | 30 - 60% | Activity (HCT-116 [9]): Active; Activity (HCT-116 [11]): Active
7 | CCNc1cc(N[C@H]2CC[C@H](O)CC2)nc(Nc2ccc3c(ccn3Cc3ccccc3)c2)n1 | > 10 µM | > 10 µM | > 10 µM | – | – | – | – | – | Activity (HCT-116 [1]): 30 - 60%; Activity (HCT-116 [12]): Active
8 | CNC(=O)c1nn(C)c2c1C(C)(C)Cc1cnc(Nc3ccc(N4CCN(C)CC4)cc3)nc1-2 [MILCICLIB] | – | – | – | 0.59 µM | 1.2 µM | – | 0.109 µM | 30 - 60% | –
9 | CC(=O)c1cnc2oc3ccc(O)cc3c2c1-c1ccccc1 | > 20 µM | > 20 µM | 17.5 µM | > 20 µM | > 20 µM | > 20 µM | > 20 µM | – | Activity (HCT-116 [7]): inactive
10 | COc1ccc(CNc2nc(N(CCO)CCO)nc3c2ncn3C(C)C)cc1 | 2.3 µM | 9.2 µM | 0.419 µM | – | 3.7 µM | > 20 µM | – | <=30% | –
11 | O=C1Nc2ccc3ncsc3c2/C1=C/Nc1ccc(S(=O)(=O)Nc2ccccn2)cc1 | – | 0.317 µM | 0.007 µM | – | 0.049 µM | 0.139 µM | – | 30 - 60% | –
12 | COc1ccc(OC)c2c(=S)c3ccccc3[nH]c12 | > 20 µM | > 20 µM | > 20 µM | > 20 µM | > 20 µM | > 20 µM | > 20 µM | – | Activity (HCT-116 [13]): Active
13 | CCn1cnc2c(Nc3cccc(Cl)c3)nc(N[C@@H]3CCCC[C@@H]3N)nc21 | 1.4 µM | 0.279 µM | 0.026 µM | 0.026 µM | 0.147 µM | 3 µM | 0.046 µM | – | Activity (HCT-116 [14]): <=30%
